# Like-named read-outs stand apart in the source and are kept apart here.
# How the values were obtained:
# Klebsiella oxytoca = test: Mueller-Hinton agar dilution method (MIC); format: cell-based; settings: strain K-81-6, Table I, read-out: Minimal Inhibitory Concentration
# Enterobacter aerogenes = test: Mueller-Hinton agar dilution method (MIC); format: cell-based; settings: Klebsiella aerogenes; strain STFD-79-14; Table I; read-out: Minimal Inhibitory Concentration
# Acinetobacter sp. = test: Mueller-Hinton agar dilution method (MIC); format: cell-based; settings: read-out: Minimal Inhibitory Concentration
# Salmonella (arizona) = test: Mueller-Hinton agar dilution method (MIC); format: cell-based; settings: strain QHC-77-3, Table I, read-out: Minimal Inhibitory Concentration
# Enterobacter cloacae = test: Mueller-Hinton agar dilution method (MIC); format: cell-based; settings: read-out: Minimal Inhibitory Concentration
# Escherichia coli [1] = test: control of systemic lethal infections in mice; format: in vivo, mice (Charles River Laboratories CD-1 strain female); settings: sc, 168 h, strain 311, subcutaneous 30 min after i.p. infection, survival at 7 days, three tests pooled, 95% confidence limits (0.28-0.44), read-out: Median Effective Dose (ED50)
# Method: (§1) The test employed used Charles River Laboratories CD-1 strain female mice each weighing 20+2 grams. The mice were infected by intraperitoneal injection of sufficient bacteria (see Table 2), contained in either 0.5 ml. of 5% mucin (S. aureus strains) or broth (S. pyogenes or E. coli), to kill 95-100% of untreated mice within 48 hours.
# (§2) The mice were treated by subcutaneous injection 30 minutes after infection with the test drug at varying doses contained in 0.5 ml. of 0.2% aqueous agar. Survival ratios seven days after infection were recorded.
# Staphylococcus pyogenes = test: control of systemic lethal infections in mice; format: in vivo, mice (Charles River Laboratories CD-1 strain female); settings: Staphylococcus aureus, sc, 168 h; strain C 203; subcutaneous 30 min after i.p. infection; survival at 7 days; three tests pooled; 95% confidence limits (0.08-0.13); read-out: Median Effective Dose (ED50)
# Method: as §1, §2
# Staphylococcus aureus [2] = test: control of systemic lethal infections in mice; format: in vivo, mice (Charles River Laboratories CD-1 strain female); settings: sc, 168 h, survival at 7 days, three tests pooled, read-out: Median Effective Dose (ED50)
# Method: as §1, §2
# Staphylococcus aureus [3] = test: Mueller-Hinton agar dilution method (MIC); format: cell-based; settings: read-out: Minimal Inhibitory Concentration
# Proteus morganii = test: Mueller-Hinton agar dilution method (MIC); format: cell-based; settings: Morganella morganii, Table I, read-out: Minimal Inhibitory Concentration
# Klebsiella pneumoniae = test: Mueller-Hinton agar dilution method (MIC); format: cell-based; settings: Table I
# Escherichia coli [4] = test: Mueller-Hinton agar dilution method (MIC); format: cell-based; settings: read-out: Minimal Inhibitory Concentration
# Providencia stuartti = test: Mueller-Hinton agar dilution method (MIC); format: cell-based; settings: strain K-81-29, Table I, read-out: Minimal Inhibitory Concentration
# Proteus rettgeri = test: Mueller-Hinton agar dilution method (MIC); format: cell-based; settings: Providencia rettgeri; strain N-76-1; Table I; read-out: Minimal Inhibitory Concentration
# Pseudomonas aeruginosa = test: Mueller-Hinton agar dilution method (MIC); format: cell-based; settings: read-out: Minimal Inhibitory Concentration
# Enterococcus sp. = test: Mueller-Hinton agar dilution method (MIC); format: cell-based; settings: Table I
# Citrobacter sp. = test: Mueller-Hinton agar dilution method (MIC); format: cell-based; settings: strain K-81-27, Table I, read-out: Minimal Inhibitory Concentration
# Salmonella sp. = test: Mueller-Hinton agar dilution method (MIC); format: cell-based; settings: strain SSC-79-57, Table I, read-out: Minimal Inhibitory Concentration
# Excerpt: The results appear in Tables I, II, and III.
# Serratia marcescens = test: Mueller-Hinton agar dilution method (MIC); format: cell-based; settings: read-out: Minimal Inhibitory Concentration
structure (smiles),measurement,setting,value
"CO/N=C(\C(=O)N[C@@H]1C(=O)N2C(C(=O)O)=C(CSc3cnns3)CS[C@H]12)c1csc(N)n1 [Compound Ia, 7 beta-[alpha-syn-methoxyimino-alpha-(2-aminothiazol-4-yl)acetamido]-3-[(1,2,3-thiadiazol-5-ylthio)methyl]-3-cephem-4-carboxylic acid]",MIC,Klebsiella oxytoca,0.03 mg/L
same,MIC,Enterobacter aerogenes,0.03 mg/L
same,MIC,"Acinetobacter sp.; strain K-77-1, Table I",4 mg/L
same,MIC,"Acinetobacter sp.; strain K-77-6, Table I",16 mg/L
same,MIC,"Acinetobacter sp.; strain STFD-79-17, Table I",16 mg/L
same,MIC,Salmonella (arizona),0.03 mg/L
same,MIC,"Enterobacter cloacae; strain K-79-16, Table I",0.25 mg/L
same,MIC,"Enterobacter cloacae; strain K-81-46, Table I",0.12 mg/L
same,ED50,Escherichia coli [1],0.35 mg/kg
same,ED50,Staphylococcus pyogenes,0.1 mg/kg
same,ED50,"Staphylococcus aureus [2]; strain Fu-79-2, subcutaneous 30 min after i.p. infection, 95% confidence limits (4.4-8.4)",6.1 mg/kg
same,ED50,"Staphylococcus aureus [2]; strain Smith, subcutaneous 30 min after i.p. infection, 95% confidence limits (2.4-3.6)",2.9 mg/kg
same,MIC,"Staphylococcus aureus [3]; beta-lactamase negative, strain SSC 79-3, Table II",0.12 mg/L
same,MIC,"Staphylococcus aureus [3]; beta-lactamase negative, strain SSC 79-5, Table II",0.5 mg/L
same,MIC,"Staphylococcus aureus [3]; beta-lactamase negative, strain SSC 79-7, Table II",0.12 mg/L
same,MIC,"Staphylococcus aureus [3]; beta-lactamase negative, strain SSC 79-9, Table II",0.12 mg/L
same,MIC,"Staphylococcus aureus [3]; beta-lactamase negative, strain SSC 79-10, Table II",0.12 mg/L
same,MIC,"Staphylococcus aureus [3]; beta-lactamase negative, strain SSC 79-11, Table II",0.12 mg/L
same,MIC,"Staphylococcus aureus [3]; beta-lactamase negative, strain SSC 79-14, Table II",0.5 mg/L
same,MIC,"Staphylococcus aureus [3]; beta-lactamase negative, strain SSC 79-15, Table II",0.5 mg/L
same,MIC,"Staphylococcus aureus [3]; beta-lactamase negative, strain SSC 79-17, Table II",0.25 mg/L
same,MIC,"Staphylococcus aureus [3]; beta-lactamase positive, strain SSC 79-24, Table II",4 mg/L
same,MIC,"Staphylococcus aureus [3]; beta-lactamase positive, strain SSC 79-27, Table II",0.25 mg/L
same,MIC,"Staphylococcus aureus [3]; beta-lactamase positive, strain SSC 79-28, Table II",0.25 mg/L
same,MIC,"Staphylococcus aureus [3]; beta-lactamase positive, strain SSC 79-36, Table II",0.25 mg/L
same,MIC,"Staphylococcus aureus [3]; beta-lactamase positive, strain SSC 79-38, Table II",0.25 mg/L
same,MIC,"Staphylococcus aureus [3]; beta-lactamase positive, strain SSC 79-39, Table II",0.25 mg/L
same,MIC,"Staphylococcus aureus [3]; beta-lactamase positive, strain SSC 79-41, Table II",0.5 mg/L
same,MIC,"Staphylococcus aureus [3]; beta-lactamase positive, strain SSC 79-44, Table II",0.12 mg/L
same,MIC,"Staphylococcus aureus [3]; beta-lactamase positive, strain SSC 79-47, Table II",0.25 mg/L
same,MIC,"Staphylococcus aureus [3]; strain FU-79-19-2, Table I",0.5 mg/L
same,MIC,"Staphylococcus aureus [3]; strain SSC-79-18, Table I",0.25 mg/L
same,MIC,"Staphylococcus aureus [3]; strain SSC-80-15, Table I",0.5 mg/L
same,MIC,"Staphylococcus aureus [3]; strain Smith, Table I",0.25 mg/L
same,MIC,Proteus morganii; strain K-77-3,4 mg/L
same,MIC,Proteus morganii; strain K-79-25,0.015 mg/L
same,MIC,"Klebsiella pneumoniae; Klebsiella pneumoniae, strain STFD-79-16, read-out: Minimal Inhibitory Concentration",0.015 mg/L
same,Minimal Inhibitory Concentration,Klebsiella pneumoniae; strain SSC-78-1,.015 µg/mL
same,MIC,"Escherichia coli [4]; strain #311, Table I",0.03 mg/L
same,MIC,"Escherichia coli [4]; strain K-81-14, Table I",0.06 mg/L
same,MIC,"Escherichia coli [4]; strain STFD-79-20, Table I",0.015 mg/L
same,MIC,Providencia stuartti,0.06 mg/L
same,MIC,Proteus rettgeri,0.015 mg/L
same,MIC,"Pseudomonas aeruginosa; strain 12-4-4, Table I",32 mg/L
same,MIC,"Pseudomonas aeruginosa; strain SSC-78-13, Table I",64 mg/L
same,MIC,"Pseudomonas aeruginosa; strain TUL-78-2, Table I",128 mg/L
same,MIC,"Enterococcus sp.; Enterococcus, strain OSU-75-1, read-out: Minimal Inhibitory Concentration",32 mg/L
same,Minimal Inhibitory Concentration,Enterococcus sp.; strain SM-77-15,32 µg/mL
same,MIC,Citrobacter sp.,0.03 mg/L
same,MIC,Salmonella sp.,0.25 mg/L
same,MIC,"Serratia marcescens; strain K-81-39, Table I",0.12 mg/L
same,MIC,"Serratia marcescens; strain QHC-77-2, Table I",1 mg/L
same,MIC,"Serratia marcescens; strain TUL-78-15, Table I",1 mg/L

# Source: patent US4399132A, “7-Beta-[alpha-syn-methoxyimino-alpha-(2-aminothiazol-4-yl)-aceta mido]-3-[(1,2,3-thiadiazol-5-ylthio)methyl]-3-cephem-4-carboxylic acid and C1 -C6 alkyl derivatives thereof” (American Cyanamid Company, priority 1981, dated 1983)
